Reference: PubChem BioAssay (NCI)
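A five-concentration, 48-hour dose response in 96-well plates underlies each endpoint, interpolated linearly between surrounding concentrations. TGI is the concentration that stops growth completely.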

Tests used:
Test in all cases: NCI-60 cell line screen, 48 h
786-0 renal = system: 786-0 renal
A498 renal = system: A498 renal
A549 NSCLC = system: A549 NSCLC
ACHN renal = system: ACHN renal
CAKI-1 renal = system: CAKI-1 renal
CCRF-CEM leukemia = system: CCRF-CEM leukemia
COLO 205 colon = system: COLO 205 colon
DLD-1 colon = system: DLD-1 colon
DMS 114 small cell lung = system: DMS 114 small cell lung
DMS 273 small cell lung = system: DMS 273 small cell lung
EKVX NSCLC = system: EKVX NSCLC
HCC-2998 colon = system: HCC-2998 colon
HCT-116 colon = system: HCT-116 colon
HCT-15 colon = system: HCT-15 colon
HL-60(TB) leukemia = system: HL-60(TB) leukemia
HOP-18 NSCLC = system: HOP-18 NSCLC
HOP-62 NSCLC = system: HOP-62 NSCLC
HOP-92 NSCLC = system: HOP-92 NSCLC
HT29 colon = system: HT29 colon
IGROV1 ovarian = system: IGROV1 ovarian
K-562 leukemia = system: K-562 leukemia
KM12 colon = system: KM12 colon
KM20L2 colon = system: KM20L2 colon
LOX IMVI melanoma = system: LOX IMVI melanoma
LXFL 529 NSCLC = system: LXFL 529 NSCLC
M14 melanoma = system: M14 melanoma
M19-MEL melanoma = system: M19-MEL melanoma
MALME-3M melanoma = system: MALME-3M melanoma
MOLT-4 leukemia = system: MOLT-4 leukemia
NCI-H23 lung = system: NCI-H23 lung
NCI-H460 lung = system: NCI-H460 lung
NCI-H522 lung = system: NCI-H522 lung
OVCAR-3 ovarian = system: OVCAR-3 ovarian
OVCAR-4 ovarian = system: OVCAR-4 ovarian
OVCAR-5 ovarian = system: OVCAR-5 ovarian
OVCAR-8 ovarian = system: OVCAR-8 ovarian
RPMI-8226 leukemia = system: RPMI-8226 leukemia
RXF 393 renal = system: RXF 393 renal
RXF-631 renal = system: RXF-631 renal
SF-268 CNS = system: SF-268 CNS
SF-295 CNS = system: SF-295 CNS
SF-539 CNS = system: SF-539 CNS
SK-MEL-2 melanoma = system: SK-MEL-2 melanoma
SK-MEL-28 melanoma = system: SK-MEL-28 melanoma
SK-MEL-5 melanoma = system: SK-MEL-5 melanoma
SK-OV-3 ovarian = system: SK-OV-3 ovarian
SN12C renal = system: SN12C renal
SNB-19 CNS = system: SNB-19 CNS
SNB-75 CNS = system: SNB-75 CNS
SNB-78 CNS = system: SNB-78 CNS
SW-620 colon = system: SW-620 colon
TK-10 renal = system: TK-10 renal
U251 CNS = system: U251 CNS
UACC-257 melanoma = system: UACC-257 melanoma
UACC-62 melanoma = system: UACC-62 melanoma
UO-31 renal = system: UO-31 renal

COC(=O)c1nc(NC#N)[nH]c(=O)c1C
TGI (786-0 renal): > 100 µM | TGI (A498 renal): > 100 µM | TGI (A549 NSCLC): > 100 µM | TGI (ACHN renal): > 100 µM | TGI (CAKI-1 renal): > 100 µM | TGI (CCRF-CEM leukemia): > 100 µM | TGI (COLO 205 colon): > 100 µM | TGI (DLD-1 colon): > 100 µM | TGI (DMS 114 small cell lung): > 100 µM | TGI (DMS 273 small cell lung): > 100 µM | TGI (EKVX NSCLC): > 100 µM | TGI (HCC-2998 colon): > 100 µM | TGI (HCT-116 colon): > 100 µM | TGI (HCT-15 colon): > 100 µM | TGI (HL-60(TB) leukemia): > 100 µM | TGI (HOP-18 NSCLC): > 100 µM | TGI (HOP-62 NSCLC): > 100 µM | TGI (HOP-92 NSCLC): > 100 µM | TGI (HT29 colon): > 100 µM | TGI (IGROV1 ovarian): > 100 µM | TGI (K-562 leukemia): > 100 µM | TGI (KM12 colon): > 100 µM | TGI (KM20L2 colon): > 100 µM | TGI (LOX IMVI melanoma): > 100 µM | TGI (LXFL 529 NSCLC): > 100 µM | TGI (M14 melanoma): > 100 µM | TGI (M19-MEL melanoma): > 100 µM | TGI (MALME-3M melanoma): > 100 µM | TGI (MOLT-4 leukemia): > 100 µM | TGI (NCI-H23 lung): > 100 µM | TGI (NCI-H460 lung): > 100 µM | TGI (NCI-H522 lung): > 100 µM | TGI (OVCAR-3 ovarian): > 100 µM | TGI (OVCAR-4 ovarian): > 100 µM | TGI (OVCAR-5 ovarian): > 100 µM | TGI (OVCAR-8 ovarian): > 100 µM | TGI (RPMI-8226 leukemia): > 100 µM | TGI (RXF 393 renal): > 100 µM | TGI (RXF-631 renal): > 100 µM | TGI (SF-268 CNS): > 100 µM | TGI (SF-295 CNS): > 100 µM | TGI (SF-539 CNS): > 93 µM | TGI (SK-MEL-2 melanoma): > 100 µM | TGI (SK-MEL-28 melanoma): > 100 µM | TGI (SK-MEL-5 melanoma): > 100 µM | TGI (SK-OV-3 ovarian): > 100 µM | TGI (SN12C renal): > 100 µM | TGI (SNB-19 CNS): > 100 µM | TGI (SNB-75 CNS): > 95.4 µM | TGI (SNB-78 CNS): > 100 µM | TGI (SW-620 colon): > 100 µM | TGI (TK-10 renal): > 100 µM | TGI (U251 CNS): > 100 µM | TGI (UACC-257 melanoma): > 100 µM | TGI (UACC-62 melanoma): > 100 µM | TGI (UO-31 renal): > 84.2 µM
